Test results taken from patent US4623662A, “Antiatherosclerotic ureas and thioureas” (American Cyanamid Company, priority 1985, dated 1986).
Where two headings read alike, the source gives them in different places.

Columns and labels:
[1] = molecular target: T1, fatty acyl CoA:cholesterol acyl transferase (ACAT) (Rattus norvegicus, UniProt Q7TQM4); experiment: Inhibition of ACAT from microsomes isolated from rat intestinal mucosal cells; type: biochemical
T1 construct: the enzyme was derived from microsomes isolated from rat intestinal mucosal cells; from tissue; host or cells: rat intestinal mucosal cells, microsomes
T1 sequence (Q7TQM4 1-524): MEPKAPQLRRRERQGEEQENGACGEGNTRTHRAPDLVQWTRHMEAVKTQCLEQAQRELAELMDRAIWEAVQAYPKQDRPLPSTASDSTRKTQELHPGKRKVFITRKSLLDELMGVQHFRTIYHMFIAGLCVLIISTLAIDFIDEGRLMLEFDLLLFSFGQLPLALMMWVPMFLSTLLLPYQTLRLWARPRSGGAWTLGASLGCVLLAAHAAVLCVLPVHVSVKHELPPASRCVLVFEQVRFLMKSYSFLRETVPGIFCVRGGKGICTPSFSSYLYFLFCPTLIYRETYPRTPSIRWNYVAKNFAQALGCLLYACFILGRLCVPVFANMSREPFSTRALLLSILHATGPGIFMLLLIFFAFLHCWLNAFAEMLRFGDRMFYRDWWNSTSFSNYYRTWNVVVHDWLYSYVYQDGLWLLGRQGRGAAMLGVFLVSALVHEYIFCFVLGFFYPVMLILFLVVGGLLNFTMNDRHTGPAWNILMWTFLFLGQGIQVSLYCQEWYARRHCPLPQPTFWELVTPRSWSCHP
Protocol: The compounds were tested for their ability to inhibit ACAT according to the following procedure: rat adrenals were homogenized in 0.2M monobasic potassium phosphate buffer, pH 7.4, and centrifuged at 1,000 times gravity for 15 minutes at 5° C. The supernatant, containing the microsomal fraction, served as the source of the cholesterol-esterifying enzyme, fatty acyl CoA:cholesterol acyl transferase (ACAT). A mixture comprising 50 parts of adrenal supernatant, 10 parts of bovine serum albumin (50 mg/ml), 3 parts of test compound (final concentration 5.2 μg/ml), and 500 parts of buffer was preincubated at 37° C. for 10 minutes. After treatment with 20 parts of oleoyl CoA (^14 C-0.4 μCi), the mixture was incubated at 37° C. for 10 minutes. A control mixture, omitting the test compound, was prepared and treated in the same manner. The lipids from the incubation mixture was extracted into an organic solvent and separated by thin-layer chromatography. The cholesteryl ester fraction was counted in a scintillation counter. This procedure is a modification of that described by Hashimoto, et al., Life Scie., 12 (Part II), 1-12 (1973).
The compounds of this invention were tested in vitro at several concentrations for their ability to inhibit the enzyme fatty acyl CoA:cholesterol acyl transferase (ACAT) using the hereinabove described procedure except that the enzyme was derived from microsomes isolated from rat intestinal mucosal cells rather than rat adrenal cells. The results of this test on representative compounds of this invention are given in Table III in terms of IC50 (μM), that concentration which produced 50% inhibition of the ACAT enzyme.

cholesterol absorption = experiment: Inhibition of cholesterol absorption in rats fed 1% cholesterol:0.5% cholic acid diet; type: in vivo, male Sprague-Dawley rats; settings: po, 336 h, rat, 2 weeks; for response vs control in vivo at 0.01 %: dose .01% of the diet; for response vs control in vivo at 0.003 %: dose .003% of the diet; for response vs control in vivo at 0.03 %: dose .03% of the diet
Method in brief: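 Male Sprague-Dawley rats (150-170 g) fed 1% cholesterol:0.5% cholic acid diet for 2 weeks with compound at 0.001, 0.003, 0.01 or 0.03% of diet. Serum cholesterol measured enzymatically; liver cholesterol from saponified large-lobe sample after petroleum ether extraction. Liver and serum sterol expressed as percent of untreated controls.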

[2] = molecular target: T2, fatty acyl CoA: cholesterol acyl transferase (ACAT) (Rattus norvegicus, UniProt O70536); experiment: Inhibition of fatty acyl CoA:cholesterol acyl transferase (ACAT), rat adrenal enzyme; type: biochemical
T2 construct: The supernatant, containing the microsomal fraction, served as the source of the cholesterol-esterifying enzyme; from tissue; host or cells: rat adrenals, supernatant of 1,000 x g centrifugation containing the microsomal fraction
T2 sequence (O70536 1-545): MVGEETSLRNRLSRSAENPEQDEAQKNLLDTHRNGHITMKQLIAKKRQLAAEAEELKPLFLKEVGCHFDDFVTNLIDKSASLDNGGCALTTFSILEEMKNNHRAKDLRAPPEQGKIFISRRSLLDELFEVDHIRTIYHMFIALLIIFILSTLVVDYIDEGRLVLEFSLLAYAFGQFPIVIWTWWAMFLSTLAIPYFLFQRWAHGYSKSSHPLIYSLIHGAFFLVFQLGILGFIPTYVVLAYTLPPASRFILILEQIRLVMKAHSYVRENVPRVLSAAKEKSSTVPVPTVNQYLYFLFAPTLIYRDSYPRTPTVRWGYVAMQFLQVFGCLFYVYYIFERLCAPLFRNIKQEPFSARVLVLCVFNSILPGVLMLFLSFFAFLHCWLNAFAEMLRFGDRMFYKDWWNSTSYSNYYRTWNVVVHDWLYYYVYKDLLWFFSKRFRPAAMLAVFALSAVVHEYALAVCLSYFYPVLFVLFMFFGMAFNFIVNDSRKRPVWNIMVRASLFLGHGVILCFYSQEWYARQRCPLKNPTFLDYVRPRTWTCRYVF
Method in brief: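 Enzyme source was the microsomal supernatant of rat adrenal homogenate (0.2M potassium phosphate, pH 7.4) with BSA, preincubated with compound (5.2 μg/ml final for single-point) for 10 min at 37° C. Then [14C]oleoyl CoA added, 10 min at 37° C. TLC-separated cholesteryl ester was counted; percent inhibition versus control, IC50 from several concentrations.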

[3] = read-out: LS (liver sterol), percentage of control values
[4] = read-out: SS (serum sterol), percentage of control values

In the case of `CCCCCCCN(Cc1ccc(CC(C)C(C)CC)cc1)C(=O)Nc1c(C)cc(Cl)cc1C` (stereo not drawn) [1-(n-Heptyl)-1-[4-(2,3-dimethylpentyl)benzyl]-3-(4-chloro-2,6-dimethylphenyl)urea], the IC50 [1] is reported as 20 nM, the response vs control in vivo at 0.01 % (cholesterol absorption; [3]) is reported as 40% and the response vs control in vivo at 0.01 % (cholesterol absorption; [4]) is reported as 43%.

`CCCCCCCN(Cc1ccc(CC[S+]([O-])C(C)C)cc1)C(=O)Nc1ccc(F)cc1F` (stereo not drawn) [1-(n-Heptyl)-1-[4-(2-isopropylsulfinylethyl)benzyl]-3-(2,4-difluorophenyl)urea] gave an IC50 [1] of 220 nM and a response vs control in vivo at 0.003 % (cholesterol absorption; [3]) of 84%.

For `CCCCCCCN(Cc1ccc(CCSC(C)C)cc1)C(=O)Nc1ccc(F)cc1F` [1-(n-Heptyl)-1-[4-(2-isopropylthioethyl)benzyl]-3-(2,4-difluorophenyl)urea], the IC50 [1] was 210 nM and the response vs control in vivo at 0.003 % (cholesterol absorption; [3]) was 72%.

For `CCCCCCCN(Cc1ccc(CCCC(=O)O)cc1)C(=O)Nc1c(C)cc(Cl)cc1C` [1-(n-Heptyl)-1-[4-(3-carboxypropyl)benzyl]-3-(4-chloro-2,6-dimethylphenyl)urea], the IC50 [1] was 1020 nM and the IC50 ([2]; rat adrenal ACAT, several concentrations) was 7220 nM.

`CCCCCCCN(Cc1ccc(CC2CCCC2)cc1)C(=O)Nc1ccc(F)cc1F` [1-(n-Heptyl)-1-[4-(4-cyclopentylmethyl)benzyl]-3-(2,4-difluorophenyl)urea] gave an IC50 [1] of 140 nM and a response vs control in vivo at 0.01 % (cholesterol absorption; [3]) of 80%.

`CCCCCCCN(Cc1ccc(CCCCSC(C)C)cc1)C(=O)Nc1ccc(F)cc1F` [1-(n-Heptyl)-1-[4-(4-isopropylthiobutyl)benzyl]-3-(2,4-difluorophenyl)urea] was tested, and the IC50 [1] was 3270 nM.

With `CCCCCCCN(Cc1ccc(COC(C)=O)cc1)C(=O)Nc1ccc(F)cc1F` [1-(n-Heptyl)-1-[4-(acetoxymethyl)benzyl]-3-(2,4-difluorophenyl)urea] the IC50 [1] was 120 nM and the response vs control in vivo at 0.01 % (cholesterol absorption; [3]) was 70%.

Work on `CCCCCCCN(Cc1ccc(CC(=O)OC)cc1)C(=O)Nc1ccc(F)cc1F` [1-(n-Heptyl)-1-[4-(carbomethoxymethyl)benzyl]-3-(2,4-difluorophenyl)urea] yielded an IC50 [1] of 1750 nM.

`CCCCCCCN(Cc1ccc(CC(=O)O)cc1)C(=O)Nc1ccc(F)cc1F` [1-(n-Heptyl)-1-[4-(carboxymethyl)benzyl]-3-(2,4-difluorophenyl)urea] gave an IC50 [1] of 24000 nM.

Molecule `CCCCCCCN(Cc1ccc(CO)cc1)C(=O)Nc1ccc(F)cc1F` [1-(n-Heptyl)-1-[4-(hydroxymethyl)benzyl]-3-(2,4-difluorophenyl)urea] has an IC50 [1] of 200 nM and a response vs control in vivo at 0.003 % (cholesterol absorption; [3]) of 81%.

`CCCCCCCN(Cc1ccc(COCCC(C)C)cc1)C(=O)Nc1c(F)cc(F)cc1F` [1-(n-Heptyl)-1-[4-(isopentyloxymethyl)benzyl]-3-(2,4,6-trifluorophenyl)urea] showed an IC50 [1] of 180 nM and a response vs control in vivo at 0.001 % (cholesterol absorption; dose .001% of the diet, read-out: LS (liver sterol), percentage of control values) of 75%.

`CCCCCCCN(Cc1ccc(COCCC(C)C)cc1)C(=O)Nc1ccc(F)cc1F` [1-(n-Heptyl)-1-[4-(isopentyloxymethyl)benzyl]-3-(2,4-difluorophenyl)urea] gave an IC50 [1] of 330 nM and a response vs control in vivo at 0.01 % (cholesterol absorption; [3]) of 60%.

For `CCCCCCCN(Cc1ccc(COCCC(C)C)cc1)C(=O)Nc1c(C)cc(Cl)cc1C` [1-(n-Heptyl)-1-[4-(isopentyloxymethyl)benzyl]-3-(4-chloro-2,6-dimethylphenyl)urea], the IC50 [1] was 130 nM and the response vs control in vivo at 0.003 % (cholesterol absorption; [3]) was 47%.

Molecule `CCCCc1ccc(CN(CCCCCCO)C(=O)Nc2ccc(Cl)cc2C)cc1` [1-[(4-Butylphenyl)methyl]-3-(4-chloro-2-methylphenyl)-1-(6-hydroxyhexyl)urea] has a response vs control in vivo at 0.03 % (cholesterol absorption; [3]) of 53%, a response vs control in vivo at 0.03 % (cholesterol absorption; [4]) of 6% and an inhibition at 5.2 µg/mL [2] of 90%.

For `CCCCc1ccc(CN(CCCCC[Si](C)(C)C)C(=O)Nc2ccc(Cl)cc2C)cc1` [1-[(4-Butylphenyl)methyl]-3-(4-chloro-2-methylphenyl)-1-[5-(trimethylsilyl)pentyl]urea], the response vs control in vivo at 0.03 % (cholesterol absorption; [3]) was 62%, the response vs control in vivo at 0.03 % (cholesterol absorption; [4]) was 50% and the inhibition at 5.2 µg/mL [2] was 90%.

Work on `CC(C)(C)CCN(Cc1cccs1)C(=O)Nc1ccc(F)cc1F` [3-(2,4-Difluorophenyl)-1-(3,3-dimethylbutyl)-1-(2-thienylmethyl)urea] yielded a response vs control in vivo at 0.03 % (cholesterol absorption; [3]) of 73%, a response vs control in vivo at 0.03 % (cholesterol absorption; [4]) of 66% and an inhibition at 5.2 µg/mL [2] of 90%.

With `Cc1cc(Cl)ccc1NC(=O)N(CCC(C)(C)C)Cc1cccs1` [3-(4-Chloro-2-methylphenyl)-1-(3,3-dimethylbutyl)-1-(2-thienylmethyl)urea] the response vs control in vivo at 0.03 % (cholesterol absorption; [3]) was 64%, the response vs control in vivo at 0.03 % (cholesterol absorption; [4]) was 62% and the inhibition at 5.2 µg/mL [2] was 90%.
